In US20210038587A1, “METHODS AND COMPOSITIONS FOR TREATING NON-ERK MAPK PATHWAY INHIBITOR-RESISTANT CANCERS” (BIOMED VALLEY DISCOVERIES, INC., priority 2013, published 2021):
pKi: −log10 of the molar value. Marks after values point to notes of the source that are not given here.

Assays:
CDK2/cyclinA = CDK2/cyclinA (Homo sapiens, UniProt P24941); test: Kinase counter-screen, Ki; assay type: biochemical
Excerpt: (§1) The ATP concentrations were approximately equal to the Km in all assays.

CDK5/p35 = CDK5/p35 (Homo sapiens, UniProt Q00535); test: Kinase counter-screen, Ki; assay type: biochemical; conditions: apparent Ki
Sequence of CDK5/p35 (Q00535 whole entry, species assumed): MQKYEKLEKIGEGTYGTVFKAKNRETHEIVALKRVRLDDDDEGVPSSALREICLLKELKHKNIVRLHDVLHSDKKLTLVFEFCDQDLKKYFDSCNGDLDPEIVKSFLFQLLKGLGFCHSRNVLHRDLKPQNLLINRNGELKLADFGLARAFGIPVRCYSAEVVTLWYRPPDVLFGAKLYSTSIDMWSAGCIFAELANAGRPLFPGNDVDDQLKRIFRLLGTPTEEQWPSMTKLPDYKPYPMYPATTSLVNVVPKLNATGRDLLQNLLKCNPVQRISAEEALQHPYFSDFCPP
Sequence of CDK5/p35 (Q15078 whole entry partner, species assumed): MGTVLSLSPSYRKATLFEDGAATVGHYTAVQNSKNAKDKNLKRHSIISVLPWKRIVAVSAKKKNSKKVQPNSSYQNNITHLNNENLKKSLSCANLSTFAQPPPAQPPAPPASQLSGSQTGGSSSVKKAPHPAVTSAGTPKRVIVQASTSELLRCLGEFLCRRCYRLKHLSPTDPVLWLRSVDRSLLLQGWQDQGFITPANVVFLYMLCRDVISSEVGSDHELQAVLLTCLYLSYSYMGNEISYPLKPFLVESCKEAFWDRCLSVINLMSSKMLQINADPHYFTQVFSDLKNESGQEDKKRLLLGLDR
Excerpt: as §1

P38δ = P38δ (Homo sapiens, UniProt O15264); test: Kinase counter-screen, Ki; assay type: biochemical; conditions: apparent Ki
Sequence of P38δ (O15264 whole entry): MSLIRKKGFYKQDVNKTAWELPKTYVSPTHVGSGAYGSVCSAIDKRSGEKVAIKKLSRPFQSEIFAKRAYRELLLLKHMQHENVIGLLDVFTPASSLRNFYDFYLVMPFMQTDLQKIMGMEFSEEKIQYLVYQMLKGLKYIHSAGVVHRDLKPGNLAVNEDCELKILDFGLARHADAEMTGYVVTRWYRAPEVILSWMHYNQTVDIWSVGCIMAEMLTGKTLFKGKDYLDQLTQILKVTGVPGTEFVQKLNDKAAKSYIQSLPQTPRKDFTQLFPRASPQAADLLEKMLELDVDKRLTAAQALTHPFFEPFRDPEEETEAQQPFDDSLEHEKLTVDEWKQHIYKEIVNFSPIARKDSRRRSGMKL
Excerpt: as §1

A375 xenografts = test: A375 xenografts, BVD-523 in combination with dabrafenib; assay type: in vivo, mice; conditions: 100 mg/kg BID
Excerpt: For measurement of antitumor activity in A375 xenografts, xenografts were initiated with A375 cells maintained by serial subcutaneous transplantation in female athymic nude mice. Each test mouse received an A375 tumor fragment (1 mm^3) implanted subcutaneously in the right flank. Once tumors reached target size (80-120 mm^3), animals were randomized into treatment and control groups, and drug treatment was initiated.
Combination dosing was stopped on Day 20 to monitor for tumor regrowth. Animals were monitored individually and euthanized when each tumor reached an endpoint volume of 2000 mm^3, or the final day (Day 45), whichever came first, and median time to endpoint (TTE) calculated. The combination was also evaluated in an upstaged A375 model where larger tumors in the range 228-1008 mm^3 were evaluated. Here, mice were randomized into 1 group (Group 1) of 14 and 4 groups (Groups 2-5) of 20. […] Tumors were measured twice weekly. Combination dosing was stopped on Day 42 to monitor for tumor regrowth through study end (Day 60). Treatment outcome was determined from % TGD, defined as the percent increase in median TTE for treated versus control mice, with differences between groups analyzed via log rank survival analysis. […] Mice were also monitored for CR and PR responses. Animals with a CR at the end of the study were additionally classified as TFS.

[1] = system: ERK1/2 phosphorylation in Colo205 xenografts; test: pERK1/2 in Colo205 xenograft tumors (ITIS mass spectrometry, IHC); assay type: in vivo, mice; conditions: single 100 mg/kg oral dose
Procedure: For measurement of ERK1/2 Isotope-Tagged Internal Standard (ITIS) Mass Spectrometry in Colo205 Xenografts, frozen tumors were lysed in 10 volumes of ice cold lysis buffer (10 mM TRIS-HCl, pH 8.0, 10 mM MgCl2, 1% (v/v) Triton X-100, Complete™ Protease Inhibitor Cocktail [Roche, cat. No. 1836170], Phosphatase Inhibitor Cocktail I [Sigma, cat. No. P-2850], Phosphatase Inhibitor Cocktail II [Sigma cat. No. 5726], and benzonase [Novagen cat. No. 70664]). Lysates were clarified by centrifugation (100,000×g for 60 minutes at 4° C.) and the supernatants adjusted to 2 mg/mL with lysis buffer. ERK1 was immunoprecipitated using agarose-coupled and pan-anti-ERK1 (Santa Cruz Biotechnology cat. No. sc-93ac) antibodies. […]
For ITIS analysis, digested samples were spiked with heavy-atom labeled peptide standards and fractional phosphorylation was quantified by coupled liquid chromatography-tandem mass spectrometry (MS). […]
For analysis of pERK IHC in Colo205 xenografts, xenograft tumors were processed overnight in 70% through 100% graded ethanols, cleared in two changes of xylene, infiltrated with paraffin, and embedded into paraffin blocks. […] A single section from each animal and dose group was probed with anti-phospho p42/p44 MAPK antibody (pERK [1:100], CST; Cat no. 9101; Lot no. 16), counterstained with hematoxylin, and then analyzed microscopically using a Zeiss Axioplan 2 microscope. […]

[2] = Phase I dose-escalation study: safety, DLT, MTD, RP2D; conditions: in vivo
Excerpt: Patients aged ≥18 years were eligible for participation if they had noncurable, histologically confirmed metastatic or advanced stage malignant tumors; an ECOG performance status of 0 or 1; adequate renal, hepatic, bone marrow, and cardiac function; and a life expectancy ≥3 months. Patients may have received up to 2 prior lines of chemotherapy for their metastatic disease. Exclusion criteria were known uncontrolled brain metastases; gastrointestinal conditions which could impair absorption of study medication; history or current evidence/risk of retinal vein occlusion or central serous retinopathy; and concurrent therapy with drugs known to be strong inhibitors of CYP1A2, CYP2D6, and CYP3A4 or strong inducers of CYP3A4. All participants provided informed consent prior to initiation of any study procedures.
The present invention presents data from an open-label, multicenter phase I study to assess the safety, pharmacokinetics, and pharmacodynamics of escalating doses of BVD-523 in patients with advanced malignancies.
Patients received BID oral doses until disease progression, unacceptable toxicity, or a clinical observation satisfying another withdrawal criterion. Dose escalations occurred in up to 100% increments in single-patient cohorts until 1 patient experienced a ≥Grade 2 toxicity (excluding alopecia or diarrhea). Cohorts were then expanded to at least 3 patients each and subsequent dose-escalation increments were reduced from up to 100% to a maximum of 50%. When at least 1 patient in a 3-patient cohort experienced a DLT, up to 3 additional patients were treated at this dose level. When more than 1 DLT occurred in ≤6 patients, this dose level was defined as the nontolerated dose and dose escalation was stopped. Intrapatient dose escalation was allowed, provided the patients receiving the highest current dose had been observed for at least 3 weeks and dose-limiting side effects were reported in fewer than 2 of 6 patients assigned to a given dose. Patients experiencing DLTs or unacceptable toxicity had their treatment interrupted until the toxicity returned to ≤Grade 1.
The RP2D could be as high as the MTD and was determined in discussion with the clinical investigators, the medical monitor, and the sponsor. Observations related to pharmacokinetics, pharmacodynamics, and any cumulative toxicity observed after multiple cycles were included in the rationale supporting the RP2D.
The severity of AEs were graded according to the National Cancer Institute Common Terminology Criteria for Adverse Events, Grading Scale, version 4.
Safety evaluations were conducted at baseline, on Days 8, 15, 22, 29, 36, and 43, and, in patients who continued treatment, every 3 weeks or if clinically indicated thereafter. Each evaluation included a physical examination and clinical laboratory studies. Electrocardiograms were repeated if clinically significant and at the discretion of the investigator. The investigators made judgments regarding whether or not AEs were related to study drug and followed up until resolution or stabilization, or the AE was judged to be no longer clinically significant.

ERK1 = ERK1 (Homo sapiens, UniProt P27361); test: biochemical
Sequence of ERK1 (P27361 whole entry): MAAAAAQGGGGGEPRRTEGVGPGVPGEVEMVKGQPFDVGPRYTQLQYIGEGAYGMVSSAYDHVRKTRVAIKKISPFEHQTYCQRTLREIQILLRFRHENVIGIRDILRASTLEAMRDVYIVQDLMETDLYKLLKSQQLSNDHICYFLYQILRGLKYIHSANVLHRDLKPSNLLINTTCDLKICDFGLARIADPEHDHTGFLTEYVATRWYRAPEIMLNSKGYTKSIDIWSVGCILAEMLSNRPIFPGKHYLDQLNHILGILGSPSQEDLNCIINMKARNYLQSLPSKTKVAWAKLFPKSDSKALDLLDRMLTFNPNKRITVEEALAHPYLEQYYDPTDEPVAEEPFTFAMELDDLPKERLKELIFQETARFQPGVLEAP
Procedure: The reaction was initiated by the addition of 65 μM of ATP. Decreased absorbance rate (340 nm) was monitored and the IC50 was determined as a function of inhibitor concentration.

For CC(C)Nc1cc(-c2c[nH]c(C(=O)N[C@H](CO)c3cccc(Cl)c3)c2)c(Cl)cn1 [BVD-523], the pKi (CDK2/cyclinA) was 6.44, the pKi (CDK5/p35) was 7.05 and the pKi (P38δ) was 6.62. For the same compound, the durable complete responses (A375 xenografts) was 2, the “time of maximal ERK1/2 phosphorylation post-dose” value [1] was 8 h and the “time of return of pERK1/2 to pre-dose levels” value [1] was ≤ 24 hours. The “Anemia, Any grade” value ([2]; human) was 5 (19) n (%), the “Anemia, Grade 1 or 2” value ([2]; human) was 3 (11) n (%) and the “Anemia, Grade 3” value ([2]; human) was 2^ (7) n (%). For the same compound, the “Anorexia, Any grade” value ([2]; human) was 6 (22) n (%), the “Anorexia, Grade 1 or 2” value ([2]; human) was 6 (22) n (%) and the “Anorexia, Grade 3” value ([2]; human) was 0 n (%). For the same compound, the “Blurry/dimmed vision, Any grade” value ([2]; human) was 3 (11) n (%), the “Blurry/dimmed vision, Grade 1 or 2” value ([2]; human) was 3 (11) n (%) and the “Blurry/dimmed vision, Grade 3” value ([2]; human) was 0 n (%). The “Constipation, Any grade” value ([2]; human) was 3 (11) n (%), the “Constipation, Grade 1 or 2” value ([2]; human) was 3 (11) n (%) and the “Constipation, Grade 3” value ([2]; human) was 0 n (%). For the same compound, the “Dehydration, Any grade” value ([2]; human) was 5 (19) n (%), the “Dehydration, Grade 1 or 2” value ([2]; human) was 3 (11) n (%) and the “Dehydration, Grade 3” value ([2]; human) was 2^ (7) n (%). For the same compound, the “Diarrhea, Any grade” value ([2]; human) was 16 (59) n (%), the “Diarrhea, Grade 1 or 2” value ([2]; human) was 12 (44) n (%) and the “Diarrhea, Grade 3” value ([2]; human) was 4^ (15) n (%). The “Fatigue, Any grade” value ([2]; human) was 17 (63) n (%), the “Fatigue, Grade 1 or 2” value ([2]; human) was 16 (59) n (%) and the “Fatigue, Grade 3” value ([2]; human) was 1^ (4) n (%). The “Fever, Any grade” value ([2]; human) was 3 (11) n (%), the “Fever, Grade 1 or 2” value ([2]; human) was 3 (11) n (%) and the “Fever, Grade 3” value ([2]; human) was 0 n (%). For the same compound, the “Grade 3 treatment-related diarrhea” value ([2]; human) was 15%, the “Grade 3 treatment-related increased liver function tests” value ([2]; human) was 11% and the “Increased LFTs (ALT and AST), Any grade” value ([2]; human) was 4 (14) n (%). The “Increased LFTs (ALT and AST), Grade 1 or 2” value ([2]; human) was 1 (4) n (%), the “Increased LFTs (ALT and AST), Grade 3” value ([2]; human) was 3^ (11) n (%) and the “Increased creatinine, Any grade” value ([2]; human) was 5 (19) n (%). The “Increased creatinine, Grade 1 or 2” value ([2]; human) was 4 (15) n (%), the “Increased creatinine, Grade 3” value ([2]; human) was 1^ (4) n (%) and the MTD ([2]; human) was 600 mg BID. The “Nausea, Any grade” value ([2]; human) was 14 (52) n (%), the “Nausea, Grade 1 or 2” value ([2]; human) was 14 (52) n (%) and the “Nausea, Grade 3” value ([2]; human) was 0 n (%). For the same compound, the “Peripheral edema, Any grade” value ([2]; human) was 4 (15) n (%), the “Peripheral edema, Grade 1 or 2” value ([2]; human) was 4 (15) n (%) and the “Peripheral edema, Grade 3” value ([2]; human) was 0 n (%). The “Pruritus, Any grade” value ([2]; human) was 6 (22) n (%), the “Pruritus, Grade 1 or 2” value ([2]; human) was 6 (22) n (%) and the “Pruritus, Grade 3” value ([2]; human) was 0 n (%). The RP2D ([2]; human) was 600 mg BID, the “Rash, Any grade” value ([2]; human) was 20 (74) n (%) and the “Rash, Grade 1 or 2” value ([2]; human) was 18 (67) n (%). For the same compound, the “Rash, Grade 3” value ([2]; human) was 2^b (7) n (%), the “Vomiting, Any grade” value ([2]; human) was 8 (30) n (%) and the “Vomiting, Grade 1 or 2” value ([2]; human) was 7 (26) n (%). For the same compound, the “Vomiting, Grade 3” value ([2]; human) was 1^ (4) n (%), the “dose reductions resulting from AEs” value ([2]; human) was 3 patients and the “patients with Grade 4 or 5 AEs possibly or definitely related” value ([2]; human) was “^aNo patients experienced Grade 4 or 5 AEs that were possibly or definitely related to BVD-523 treatment”. For the same compound, the “patients with treatment-related AEs of any grade” value ([2]; human) was 26 of 27, the “patients with treatment-related Grade 3 events” value ([2]; human) was 13 of 27 and the “related central serous retinopathy events” value ([2]; human) was “^cOne Grade 1 event of related central serous retinopathy”. For the same compound, the “total serious AEs (SAEs)” value ([2]; human) was 28, the treatment-related diarrhea ([2]; human) was 52% and the treatment-related fatigue ([2]; human) was 59%. The treatment-related nausea ([2]; human) was 52%, the “treatment-related rash (predominately acneiform)” value ([2]; human) was 70% and the “patients with serious AEs (SAEs)” value [2] was “Fourteen”. The pKi (ERK1; Ki against recombinant ERK1, tight-binding) was > 9.52 and the pKi (ERK1; Ki, ERK1) was ≥ 9.52.
